USRE47689E1, “Compounds for treating spinal muscular atrophy” (PTC Therapeutics, Inc., priority 2011, dated 2019)

Columns and labels:
[1] = tested on: SMN2 minigene (full length SMN2 minigene mRNA containing SMN2 exon 7); test: SMN2 minigene mRNA splicing RT-qPCR assay in cultured cells; type: cell-based, human; conditions: Homo sapiens, HEK293-H; HEK293H cells stably transfected with SMN2-A minigene; 24 hours; 7-point concentration curve; 1.5-fold relative to vehicle-treated cells; read-out: EC1.5x for production of full length SMN2 mRNA
Outline: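 Read-out: full-length (exon 7-included) SMN2 minigene mRNA by multiplex RT-qPCR with GAPDH, efficiency-corrected (1+E)^−Ct, GAPDH-normalized and divided by vehicle. Stably transfected HEK293H cells, 24 h compound exposure, duplicates per concentration. Value is EC1.5x, reported as star ranges.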

[2] = tested on: Smn protein; test: Smn protein assay in cultured cells (SMN HTRF); type: cell-based, human; conditions: 48 hours; for EC1.5x (concentration giving 1.5-fold Smn protein increase): SMA Type 1 patient fibroblast cells (GM03813), 7-point concentration curve, SMN HTRF, concentration producing 1.5 times Smn protein vs DMSO vehicle control, read-out: EC1.5x for Smn protein expression; for maximum fold (Fold) increase of Smn protein: SMA patient fibroblast cells, 7-point concentration data, fold increase relative to vehicle control (SMN HTRF)
Outline: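 Lysates in RIPA with protease inhibitors are incubated overnight at room temperature with HTRF anti-SMN antibodies. EC1.5x is derived from fold increase in ΔF over vehicle.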

SMILES | EC (1.5-fold) [1] | EC1.5x (concentration giving 1.5-fold Smn protein increase) [2] | maximum fold (Fold) increase of Smn protein [2] | melting point
Cc1cn2cc(-c3cc4ccc(N5CCN(C6CCC6)CC5)cc4oc3=O)cc2c(C)n1 [Compound 814, 7-(4-cyclobutylpiperazin-1-yl)-3-(1,3-dimethylpyrrolo[1,2-a]pyrazin-7-yl)-2H-chromen-2-one] | < 0.1 µM | < 300 nM | ***** (fold increase >1.65) | 217 to 220 °C
Cc1ccc2nc(-c3cc4ccc(N5CCC(N)CC5)cc4oc3=O)cn2c1 [Compound 219, 7-(4-aminopiperidin-1-yl)-3-(6-methylimidazo[1,2-a]pyridin-2-yl)-2H-chromen-2-one] | 3 to 30 µM |  | * (maximum fold increase of ≤1.2) | 250 to 252 °C
Cc1cnc2nc(-c3cc4ccc(N5CCCNCC5)cc4oc3=O)cn2c1 [Compound 378, 7-(1,4-diazepan-1-yl)-3-(6-methylimidazo[1,2-a]pyrimidin-2-yl)-2H-chromen-2-one] | 0.1 to 0.3 µM |  | ** (fold increase between >1.2 and ≤1.35) | 275 to 278 °C
O=c1oc2cc(N3CCNCC3)ccc2cc1-c1cn2cccc(C(F)(F)F)c2n1 [Compound 209, 7-(piperazin-1-yl)-3-[8-(trifluoromethyl)imidazo[1,2-a]pyridin-2-yl]-2H-chromen-2-one] | 0.3 to 1 µM |  | * (maximum fold increase of ≤1.2) | 249 to 252 °C
C[C@@H]1CN(c2ccc3cc(-c4cn5cccc(F)c5n4)c(=O)oc3c2)CCN1 [Compound 530, 3-(8-fluoroimidazo[1,2-a]pyridin-2-yl)-7-[(3R)-3-methylpiperazin-1-yl]-2H-chromen-2-one] | 0.3 to 1 µM | < 300 nM | **** (fold increase between >1.5 and ≤1.65) | 226 to 228 °C
COc1cccc(-c2cc3ccc(N4CCNCC4)cc3oc2=O)n1 [Cpd 218, 3-(6-methoxypyridin-2-yl)-7-(piperazin-1-yl)-2H-chromen-2-one] | 0.3 to 1 µM |  | ** (fold increase between >1.2 and ≤1.35) | 162 to 165 °C
Cc1cn2cc(-c3cc4ccc(N5CCC(N(C)C)CC5)cc4oc3=O)cc2cn1 [Compound 716, 7-[4-(dimethylamino)piperidin-1-yl]-3-(3-methylpyrrolo[1,2-a]pyrazin-7-yl)-2H-chromen-2-one] | < 0.1 µM | 1000 to 3000 nM | **** (fold increase between >1.5 and ≤1.65) | 224 to 227 °C
Cc1cn2cc(-c3cc4ccc(N5CC[C@H](NC(=O)OC(C)(C)C)C5)cc4oc3=O)cc2c(C)n1 [Compound 724, tert-butyl {(3S)-1-[3-(1,3-dimethylpyrrolo[1,2-a]pyrazin-7-yl)-2-oxo-2H-chromen-7-yl]pyrrolidin-3-yl}carbamate] | 1 to 3 µM |  | * (maximum fold increase of ≤1.2) | 193 to 196 °C
CN1CCC(N(C)c2ccc3cc(-c4cn5cccnc5n4)c(=O)oc3c2)C1 (centres unmarked) [Compound 181, 3-(imidazo[1,2-a]pyrimidin-2-yl)-7-[methyl(1-methylpyrrolidin-3-yl)amino]-2H-chromen-2-one] | < 0.1 µM |  | ** (fold increase between >1.2 and ≤1.35) | 215 to 217 °C
Cc1cn2cc(-c3cc4ccc(CCN5CCC[C@@H]5CO)cc4oc3=O)nc2c(C)n1 [Compound 874, 3-(6,8-dimethylimidazo[1,2-a]pyrazin-2-yl)-7-{2-[(2R)-2-(hydroxymethyl)pyrrolidin-1-yl]ethyl}-2H-chromen-2-one] | < 0.1 µM | < 300 nM | ***** (fold increase >1.65) | 166 to 171 °C
Cc1nccn2cc(-c3cc4ccc(N5CCN(C)CC5)cc4oc3=O)nc12 [Compound 551, 3-(8-methylimidazo[1,2-a]pyrazin-2-yl)-7-(4-methylpiperazin-1-yl)-2H-chromen-2-one] | 0.3 to 1 µM | < 300 nM | *** (fold increase between >1.35 and ≤1.5) | 221 to 222 °C
CCCN1CCN(c2ccc3cc(-c4cc5cc(C)ccn5n4)c(=O)oc3c2)CC1 [Compound 308, 3-(5-methylpyrazolo[1,5-a]pyridin-2-yl)-7-(4-propylpiperazin-1-yl)-2H-chromen-2-one] | 3 to 30 µM |  | ** (fold increase between >1.2 and ≤1.35) | 228 to 230 °C
C[C@@H]1CN(c2ccc3cc(-c4nc5ccccc5s4)c(=O)oc3c2)C[C@H](C)N1 [Compound 24, 3-(1,3-benzothiazol-2-yl)-7-[(3R,5S)-3,5-dimethylpiperazin-1-yl]-2H-chromen-2-one] | 1 to 3 µM |  | * (maximum fold increase of ≤1.2) | 248 to 252 °C
Cc1cn2cc(-c3cc4ccc(N5CCN(CCO)CC5)cc4oc3=O)cc2cn1 [Compound 684, 7-[4-(2-hydroxyethyl)piperazin-1-yl]-3-(3-methylpyrrolo[1,2-a]pyrazin-7-yl)-2H-chromen-2-one] | < 0.1 µM | < 300 nM | **** (fold increase between >1.5 and ≤1.65) | 212 to 215 °C
O=c1oc2cc(N3CCNCC3)ccc2cc1-c1cc2ccccc2o1 [Compound 602, 3-(1-benzofuran-2-yl)-7-(piperazin-1-yl)-2H-chromen-2-one] | 0.3 to 1 µM |  | * (maximum fold increase of ≤1.2) | 208 to 211 °C
Cc1cn2cc(-c3cc4ccc(N5CCN(CCCF)[C@@H](C)C5)cc4oc3=O)nc2c(C)n1 [Compound 900, 3-(6,8-dimethylimidazo[1,2-a]pyrazin-2-yl)-7-[(3S)-4-(3-fluoropropyl)-3-methylpiperazin-1-yl]-2H-chromen-2-one] | < 0.1 µM | < 300 nM | ***** (fold increase >1.65) | 215 to 217 °C
COc1cc(-c2cc3ccc(N4CCN(C)CC4)cc3oc2=O)ccn1 [Compound 165, 3-(2-methoxypyridin-4-yl)-7-(4-methylpiperazin-1-yl)-2H-chromen-2-one] | 3 to 30 µM |  | ** (fold increase between >1.2 and ≤1.35) | 169 to 171 °C
C[C@@H]1CN(c2ccc3cc(-c4cn5cccc(C(F)(F)F)c5n4)c(=O)oc3c2)C[C@H](C)N1 [Compound 211, 7-[(3R,5S)-3,5-dimethylpiperazin-1-yl]-3-[8-(trifluoromethyl)imidazo[1,2-a]pyridin-2-yl]-2H-chromen-2-one] | 0.3 to 1 µM |  | * (maximum fold increase of ≤1.2) | 295 to 298 °C
CN1CCCN(c2ccc3cc(-c4cn5ccc(C(F)(F)F)cc5n4)c(=O)oc3c2)CC1 [Compound 276, 7-(4-methyl-1,4-diazepan-1-yl)-3-[7-(trifluoromethyl)imidazo[1,2-a]pyridin-2-yl]-2H-chromen-2-one] | 0.3 to 1 µM |  | * (maximum fold increase of ≤1.2) | 244 to 249 °C
COc1cccc(-c2cc3ccc(N4CCN[C@H](C)C4)cc3oc2=O)n1 [Compound 361, 3-(6-methoxypyridin-2-yl)-7-[(3R)-3-methylpiperazin-1-yl]-2H-chromen-2-one] | 1 to 3 µM |  | ** (fold increase between >1.2 and ≤1.35) | 150 to 152 °C
CCc1cccn2cc(-c3cc4ccc(N5CCN(C)CC5)cc4oc3=O)nc12 [Compound 358, 3-(8-ethylimidazo[1,2-a]pyridin-2-yl)-7-(4-methylpiperazin-1-yl)-2H-chromen-2-one] | 1 to 3 µM |  | *** (fold increase between >1.35 and ≤1.5) | 137 to 141 °C
Cc1cn2cc(-c3cc4ccc(OC5CCN(C(CO)CO)CC5)cc4oc3=O)nc2c(C)n1 [Compound 915, 7-{[1-(1,3-dihydroxypropan-2-yl)piperidin-4-yl]oxy}-3-(6,8-dimethylimidazo[1,2-a]pyrazin-2-yl)-2H-chromen-2-one] | < 0.1 µM | 300 to 1000 nM | **** (fold increase between >1.5 and ≤1.65) | 206 to 210 °C
Cc1ccc2nc(-c3cc4ccc(N5CCN[C@H](C)C5)cc4oc3=O)cn2c1 [Compound 220, 3-(6-methylimidazo[1,2-a]pyridin-2-yl)-7-[(3R)-3-methylpiperazin-1-yl]-2H-chromen-2-one] | 0.1 to 0.3 µM |  | ** (fold increase between >1.2 and ≤1.35) | 185 to 188 °C
Cl.O=c1oc2cc(OC3CCNCC3)ccc2cc1-c1cn2cccnc2n1 [Compound 197, 3-(imidazo[1,2-a]pyrimidin-2-yl)-7-(piperidin-4-yloxy)-2H-chromen-2-one hydrochloride] | 0.3 to 1 µM |  | ** (fold increase between >1.2 and ≤1.35) | > 310 °C
